Data: patent US12115222B2, “Compositions and methods for improving the solubility of erectile dysfunction therapeutics” (Villya LLC, priority 2023, dated 2024)
Values joined by “and” are separate entries in the source; they are usually repeats but may differ in a detail not shown here. Equal values may be shown once. Read-outs that look alike come from different tables or passages of the source.

Experiments:
[1] = Non-caloric sugar solubility in water and 95% ethanol
Experimental: In this experiment, the following sugars were compared for solubility: rubusoside, dulcoside A, rebaudioside B, dulcoside B, and rebaudioside D. Approximately 5.0 mg of each sugar was attempted to be dissolved in 0.6 mL water and vortexed for 2 minutes at room temperature.
In another experiment, 50 mg stevia was dissolved in either 2.0 mL water or 2.0 mL 95% ethanol.

[2] = cited from earlier work
[3] = Stability of the dissolved complex on standing (precipitate); format: physicochemical
Experimental: […] […] The clear solution was then dried as described in Step 2 in Example 8. The 10 mg dried solid was then dissolved in 0.6 mL D20.
For NMR, 10 mg of the solid sample obtained was dissolved in 0.6 mL D20. The dissolved 10 mg sample again produced a clear and homogeneous solution. […] The complex in D20 remained stable for 9 days without any observable precipitate forming.

[4] = drug alone; cited from earlier work
[5] = system: S. mansoni newly transformed schistosomula (NTS)
[6] = From the text: After solubilizing the sugar and the compound in ethanol or aqueous ethanol, the ethanol is evaporated for example under a high rotary vacuum. The powder resulting from the evaporation step is then resolubilized (dissolved) in water. Another solvent can be methanol at 80% methanol, 95% (ACS grade) or greater (to 100% methanol) as well as combinations of methanol and ethanol or methanol and water. After solubilizing the sugar and the compound in ethanol or aqueous ethanol, the ethanol is evaporated for example under a high rotary vacuum. The powder resulting from the evaporation step is then resolubilized (dissolved) in water.
Generally, ingredients are deposited into a sealed container with ethanol and vortex-mixed to form a solution. The solution is subjected to centrifugation. The ethanol is evaporated off and the dried mixture was dissolved in water. This mixture is centrifuged again and the supernatant is filtered through a membrane. […] In one embodiment, the admixing process involves dissolving the PSD and sugar in the ethanol while stirring and adjusting the pH as necessary to obtain complete dissolution and a clear reaction mixture. The reaction mixture can then be dried to remove the ethanol. No further water washing or filtering is needed.
In this example, an oven-dried single-neck RB flask equipped with a magnetic stir bar was used. […] The reaction mixture was vigorously stirred at room temperature for 30 min at 20° C. […] The white solid was dried using vacuum drying performed at room temperature and a high vacuum pump for about one hour to remove the ethanol (EtOH) completely using an Edvards Model #RV8 […], a Heidolph type Basis Hei-VAP Value, No. 560-00000-0101. The high vacuum pump was connected to a cooling trap and the trap was connected to the RB flask. Vacuum strength was about 1 mm Hg.
The white foamy solid was dried over a high vacuum at room temperature for an additional hour to remove the water completely, by ascertaining changes in weight loss. Drying continued until further weight loss was not observed.
Step 1: In an oven-dried single neck RB flask equipped with magnetic stir and septa (flask cap), 5 mg sildenafil (0.01054 mmol) and 16.95 mg stevioside (1:2 molar ratio) were weighed into the RB flask and dissolved in 85% ethanol (˜2.0 mL, denatured 85% ethanol) at ambient temperature. The reaction mixture was vigorously stirred at room temperature for 30 min. […] The white solid was dried over a high vacuum for an hour to remove the ethanol completely (no further reduction in weight was observed).
Step 2: The obtained white solid was then dissolved in 2.0 mL water at room temperature in an RB flask with a magnetic stir bar. The reaction mixture was stirred at ambient temperature for 30 min. […] The white foamy solid was dried over a high vacuum at room temperature for an additional hour to remove the water completely. The weight of the flask was checked while drying until no further weight loss was observed.

[7] = approximately 5.0 mg in 0.6 mL water, vortexed 2 minutes, room temperature

C=C1C[C@@]23CC[C@H]4[C@@](C)(CCC[C@@]4(C)C(=O)O[C@@H]4O[C@H](CO)[C@@H](O)[C@H](O)[C@H]4O)[C@@H]2CC[C@]1(O[C@@H]1O[C@H](CO)[C@@H](O)[C@H](O[C@@H]2O[C@H](CO)[C@@H](O)[C@H](O)[C@H]2O)[C@H]1O[C@@H]1O[C@H](CO)[C@@H](O)[C@H](O)[C@H]1O)C3 [rebaudioside A]
solubility of the sugar in 95% ethanol (observation) ([1]; 50 mg in 2.0 mL 95% ethanol): either insoluble or partially soluble | solubility of the sugar in water (observation) ([1]; 50 mg in 2.0 mL water): soluble | Sugar Solubility in 95% EtOH [2]: Poorly soluble | Sugar Solubility in Water [2]: Poorly soluble

rebaudioside B
solubility of the sugar in water (observation) [1, 7]: insoluble in water or poorly soluble | Sugar Solubility in 95% EtOH [2]: Poorly soluble | Sugar Solubility in Water [2]: Poorly soluble

CCCCCCCCCCCCO[C@@H]1O[C@H](CO)[C@@H](O[C@H]2O[C@H](CO)[C@@H](O)[C@H](O)[C@H]2O)[C@H](O)[C@H]1O [n-Dodecyl-β-D-maltoside]
solubility of the sugar in 95% ethanol (observation) ([1]; 50 mg in 2.0 mL 95% ethanol): soluble | solubility of the sugar in water (observation) ([1]; 50 mg in 2.0 mL water): soluble | Sugar Solubility in 95% EtOH [2]: Soluble | Sugar Solubility in Water [2]: 50 mg/mL

dulcoside A
solubility of the sugar in water (observation) [1, 7]: partially soluble | Sugar Solubility in 95% EtOH [2]: Partly soluble | Sugar Solubility in Water [2]: 2.28 mg/mL

O=C(C1CCCCC1)N1CC(=O)N2CCc3ccccc3C2C1 (centres unmarked) [Praziquantel]
time until the water solution became white and turbid ([3]; Example 16, praziquantel:rubusoside 1:2 molar, 0.1 N HCl, pH ~4.7): 15 min | Solubility of Praziquantel In Ethanol (95%), without sugar [4]: 9.7 g/100 mL | Solubility of Praziquantel In Water, without sugar [4]: 0.04 g/100 mL | 24 hr Exposure LD50 ([5]; 24 hr exposure): 33.5 ± 5.71 µM | 72 hr exposure LD50 ([5]; 72 hr exposure (table)): 24.3 ± 0.67 µM | LD50 ([5]; exposure after 72 hours): 33.9 ± 0.64 µM | solubility by 1H-NMR [6]: 0.65 | solubility by 1H-NMR analysis [6]: 0.89 | solubility for the drug by 1H-NMR analysis [6]: 1.73 | solubility in 95% ethanol with Dulcoside A [6]: insoluble | solubility in 95% ethanol with rebaudioside B [6]: insoluble | solubility in 95% ethanol with rebaudioside D [6]: insoluble | solubility in water by NMR [6]: only partial solubility | solubility in water in complex with dulcoside B [6]: well soluble | solubility in water with D-fructose (NMR) [6]: did not make praziquantel soluble or more soluble | solubility in water with rebaudioside D [6]: insoluble

OC[C@H]1O[C@H](O[C@]2(CCl)O[C@H](CCl)[C@@H](O)[C@@H]2O)[C@H](O)[C@@H](O)[C@H]1Cl [sucralose, 1,6-dichloro-1,6-dideoxy-β-D-fructofuranosyl-4-chloro-4-deoxy-α-D-galactopyranoside]
solubility of the sugar in 95% ethanol (observation) ([1]; 50 mg in 2.0 mL 95% ethanol): slowly soluble | time to dissolve in 95% ethanol ([1]; 50 mg in 2.0 mL 95% ethanol, room temperature): 2 h | solubility of the sugar in water (observation) ([1]; 50 mg in 2.0 mL water): soluble | Sugar Solubility in 95% EtOH ([2]; at 20° C.): 283 g/L at 20 °C | Sugar Solubility in Water ([2]; at 20° C.): 110 g/L at 20 °C

CCCc1nn(C)c2c(=O)[nH]c(-c3cc(S(=O)(=O)N4CCN(C)CC4)ccc3OCC)nc12 [Sildenafil, 5-[2-ethoxy-5-(4-methylpiperazin-1-yl)sulfonylphenyl]-1-methyl-3-propyl-6H-pyrazolo[4,3-d]pyrimidin-7-one]
time remained in solution in D2O ([3]; Example 14, 1:3 molar with citric acid): 3 days | solubility in water by 1H-NMR [6]: 100% | solubility in water by NMR ([6]; 30 min): 100%

C=C1C[C@@]23CC[C@H]4[C@@](C)(CCC[C@@]4(C)C(=O)O[C@@H]4O[C@H](CO)[C@@H](O)[C@H](O)[C@H]4O[C@@H]4O[C@H](CO)[C@@H](O)[C@H](O)[C@H]4O)[C@@H]2CC[C@]1(O[C@@H]1O[C@H](CO)[C@@H](O)[C@H](O[C@@H]2O[C@H](CO)[C@@H](O)[C@H](O)[C@H]2O)[C@H]1O[C@@H]1O[C@H](CO)[C@@H](O)[C@H](O)[C@H]1O)C3 [rebaudioside D]
solubility of the sugar in water (observation) [1, 7]: partially soluble | Sugar Solubility in 95% EtOH [2]: Insoluble | Sugar Solubility in Water [2]: 100 mg/ml and 88.56 mM
